Test results from PMC10587159, “Biosynthesis and engineering of the nonribosomal peptides with a C-terminal putrescine” (Nature Communications, 2023).
“Also recorded” adds a separate entry of the source. Non-standard residues stand in square brackets, D forms with d. Residues, ends and D or L forms follow the SMILES beside them. *: point of attachment. Lauroyl = CCCCCCCCCCCC(=O)*; NH(CH2)4NH2 = NCCCCN*

Legend:
native host DSM 7029 = assay: Inhibition zone test on the native host DSM 7029; type: cell-based, Schlegelella brevitalea DSM 7029; conditions: same method as for the seven tested strains
From the text: The two human acute lymphoblastic leukemia cells K562 and Kasumi, two human breast adenocarcinoma cells MCF7 and MDA-MB-231, human hepatoma cell HepG-2, human lung adenocarcinoma cell A549, human gastric cancer cell SGC-7901, human colon cancer cell HCT-116, human ovarian cancer cell line SKOV3, or human lung epithelial normal cell 2B were obtained from Beyotime Biotechnology and utilized to test the cytotoxicity of compounds by MTT assays as previous study. The anti-inflammatory effect of the compounds was detected by the influence on the increase in the level of nitric oxide caused by lipopolysaccharide (LPS) based on the classic Griess method. RAW 264.7 cells (Shanghai Institutes for Biological Science) were seeded in 96-well plates and incubated for 24 h. Then, cells were treated with compounds 29, 29a, 31, and 31a (0-80 μM) for 30 min, followed by co-treatment with LPS ([…]) for another 24 h. The Nitric Oxide assay kit with Griess reagents (Beyotime, Lot: S0021, Shanghai, China) was used to examine cellular supernatant nitrite accumulation, which represents cellular NO levels. The OD value of 540 nm absorbance was detected with a microplate reader. Their authentication in the laboratory was performed regularly based on morphology and gene/protein expression. […]

tumor lines = assay: MTT cytotoxicity assay, statements on the whole panel; type: cell-based, human; conditions: MTT assay, panel of tumor cell lines
How it was run: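 Cytotoxicity in Kasumi, HepG-2, SGC-7901 and normal lung epithelial 2B cells, among other human tumour lines, was measured by MTT assay.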

[1] = test system: S. brevitalea DSM 7029 wild type; assay: Growth curve of DSM 7029 wild type with compounds (Bioscreen C); type: cell-based, Schlegelella brevitalea DSM 7029; conditions: CYMG medium
Procedure: The growth curve was tested by Bioscreen C (Labsystems, Finland) as follow. Overnight culture was inoculated into 400 μL fresh CYMG medium in the ratio of 1:100 (the concentration of compounds was 0.1 μg/μL) and shook in normal speed. The OD600 value was gained in every hour for 42 h in total. Biofilm formation was measured at 18 h and 36 h respectively, as reported previously. In brief, the free-floating cells were removed, and the microtitre plate was washed with PBS (pH 7.4) after incubation for 18 h and 36 h. The biofilm was stained by adding 200 µL of crystal violet (0.1%) solution. Crystal violet solution was removed after 15 min and 200 µL of ethanol (95%) was added. The absorbance at OD600 was read using a microplate reader (Infinite M200, Tecan, Männedorf, Switzerland). Meanwhile, free-floating cells were used to test the secretion of pigment. The bacteria were removed and the supernatant was measured at OD600.

[2] = test system: S. brevitalea DSM 7029 wild type; assay: Biofilm formation of DSM 7029 wild type with compounds (crystal violet); type: cell-based, Schlegelella brevitalea DSM 7029
How it was run: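 CYMG medium inoculated 1:100 from overnight culture with compounds at 0.1 μg/μL; OD600 read hourly for 42 h with shaking. Biofilm quantified at 18 h and 36 h by 0.1% crystal violet staining, 95% ethanol elution, OD600. Pigment secretion measured as OD600 of cell-free supernatant.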

[3] = relative to wild type treated with H2O = 100%, crystal violet 0.1%, OD600, mean of n = 3

## CCCCCCCCCCCC(=O)N[C@H](CCSC)C(=O)N[C@H](CC(N)=O)C(=O)N1CCC[C@H]1C(=O)N[C@H](C(=O)N[C@H](Cc1ccccc1)C(=O)N1CCC[C@H]1C(=O)N[C@@H](Cc1c[nH]c2ccccc12)C(=O)N[C@@H](C(=O)N[C@@H](C)C(=O)N[C@H](C)C(=O)N[C@@H](CO)C(=O)N[C@@H](C)C(=O)NCCCCN)C(C)C)C(C)C [Compound 7, Glidonin G] (Lauroyl-[dM][dN]PV[dF]PW[dV]A[dA]SA-{NH(CH2)4NH2})
Native host DSM 7029
  inhibition of native host DSM 7029, inhibition zone method: no inhibition
Tumor lines
  cytotoxic / antitumor activity in words: broad-spectrum cytotoxicity
[1]; compound 0.1 μg/μL, OD600 every hour for 42 h, Bioscreen C
  effect on growth of DSM 7029 wild type in words: weak inhibition of growth; also recorded: obviously inhibit the growth
[1]; control OD600 0.6
  OD600 of wild type DSM 7029 with addition of compounds: 0.4
[2]; crystal violet staining
  effect on biofilm formation of DSM 7029 wild type in words: increased biofilm formation
[2]; [3]
  biofilm formation 18 h, Average: 152.732%
  biofilm formation 36 h, Average: 138.926%
